Results on 18 compounds are retold here after patent US20080269298A1, “Benzimidazol-1-YL-thiophene compounds for the treatment of cancer” (priority 2002, published 2008).

The test system of experiment [1] is Normal Human foreskin fibroblasts (HFF). The experiment in a line: Methylene Blue Growth Inhibition Assay, HFF. In kind it is cell-based. As to conditions: 72 h, Cell Line HFF, 3 days, read-out: MeB IC50. An outline of the steps: (§1)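 3-day compound exposure, 0.3% DMSO, 37° C/10% CO2; DMEM + 10% FBS. Seeding: HFF 5,000, RKO 2,500, H460 2,000 cells/well. Readout methylene blue stain, solubilized in N-lauroyl sarcosine, OD 620 nm. IC50 vs vehicle, Levenberg-Marquardt fit.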

Experiment [2] concerns lung (H460) tumor cell line. The experiment in a line: Methylene Blue Growth Inhibition Assay, H460. In kind it is cell-based. As to conditions: Homo sapiens, NCI-H460, 72 h; Cell Line H460, 3 days; read-out: MeB IC50. The gist of the method:
as §1

The test system of experiment [3] is colon (HCT116) tumor cell line. The experiment in a line: Methylene Blue Growth Inhibition Assay, HCT116. As to conditions: Homo sapiens, HCT-116, 72 h; Cell Line HCT116, 3 days; read-out: MeB IC50. In kind it is cell-based. The gist of the method: (§2)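 Methylene blue dye retained by cells after a 3-day, 37° C compound incubation in DMEM/10% FBS (0.3% DMSO) served as the biomass readout at 620 nm. IC50 values were interpolated by nonlinear regression against vehicle wells.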

Experiment [4] relates to prostate (PC3) tumor cell line. The experiment in a line: Methylene Blue Growth Inhibition Assay, PC3. In kind it is cell-based. As to conditions: Homo sapiens, 72 h; Cell Line PC3, 3 days; read-out: MeB IC50. The gist of the method:
as §2

The test system of experiment [5] is breast tumor (MCF7) cell line. The experiment in a line: Methylene Blue Growth Inhibition Assay, MCF7. In kind it is cell-based. As to conditions: Homo sapiens, 72 h; Cell Line MCF7, 3 days; read-out: MeB IC50. The gist of the method:
as §2

Experiment [6] deals with colon (RKO) tumor cell line. The experiment in a line: Methylene Blue Growth Inhibition Assay, RKO. Format: cell-based. As to conditions: Homo sapiens, 72 h, 3 days, read-out: MeB IC50. An outline of the steps:
as §1

The next experiment has as its target T1, PLK1 kinase domain (Homo sapiens, UniProt P53350).
T1 construct: made in house; host or cells: baculovirus-infected T. ni insect cells
Nature of the experiment: Assay for Inhibition of PLK1 (SPA enzyme activity). Format: biochemical. As to conditions: 2 μM ATP, read-out: Ave pIC50 PLK Enzyme Inhibition (converted).

T1 sequence (P53350 21-346): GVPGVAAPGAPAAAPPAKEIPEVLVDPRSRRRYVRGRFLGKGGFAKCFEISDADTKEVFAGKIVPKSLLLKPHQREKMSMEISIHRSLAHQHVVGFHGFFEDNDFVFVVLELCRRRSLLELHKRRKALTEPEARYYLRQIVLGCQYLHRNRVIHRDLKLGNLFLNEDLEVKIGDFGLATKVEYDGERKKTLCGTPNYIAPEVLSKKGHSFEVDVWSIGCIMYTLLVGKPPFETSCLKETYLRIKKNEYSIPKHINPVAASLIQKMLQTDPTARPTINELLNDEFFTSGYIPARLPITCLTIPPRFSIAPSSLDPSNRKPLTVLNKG

On to `CN(c1ccccc1)c1cc(-n2cnc3ccccc32)sc1C(N)=O` [Example 131, 5-(1H-Benzimidazol-1-yl)-3-[methyl(phenyl)amino]thiophene-2-carboxamide], for which the IC50 was greater than 10 µM in experiment [1]; 1 to 10 µM in experiment [2]; 1 to 10 µM in experiment [3]; greater than 10 µM in experiment [4]; 1 to 10 µM in experiment [5]; 1 to 10 µM in experiment [6]. The IC50 on PLK1 kinase domain was 0.1 to 10 µM.
Take `COc1cc2ncn(-c3cc(OCc4ccccc4Br)c(C(=O)O)s3)c2cc1OC` [Example 76, 3-[(2-Bromobenzyl)oxy]-5-(5,6-dimethoxy-1H-benzimidazol-1-yl)thiophene-2-carboxylic acid]: the IC50 in experiment [1], in experiment [2], in experiment [3], in experiment [4], in experiment [5] and in experiment [6] was greater than 10 µM each time. Further, the IC50 at PLK1 kinase domain was less than 0.1 µM.
As for `NC(=O)c1sc(-n2cnc3cc4c(cc32)OCCCO4)cc1OCc1ccccc1C(F)(F)F` [Example 89], the IC50 in experiment [1] was greater than 10 µM; in experiment [2], 1 to 10 µM; in experiment [3], 1 to 10 µM; in experiment [4] it was greater than 10 µM; in experiment [5], 1 to 10 µM; in experiment [6], 1 to 10 µM. Besides, the IC50 on PLK1 kinase domain is less than 0.1 µM.
Take `O=C(O)c1sc(-n2cnc3cc(Cl)c(Cl)cc32)cc1OCc1ccco1` [Example 78, 5-(5,6-Dichloro-1H-benzimidazol-1-yl)-3-(2-furylmethoxy)thiophene-2-carboxylic acid]: the IC50 in experiment [1], in experiment [2], in experiment [3], in experiment [4], in experiment [5] and in experiment [6] was greater than 10 µM each time. The IC50 at PLK1 kinase domain is less than 0.1 µM.
Regarding `O=C(O)c1sc(-n2cnc3ccc(Cl)cc32)cc1OCc1ccc(F)cc1Cl` [Example 70, 5-(6-Chloro-1H-benzimidazol-1-yl)-3-[(2-Chloro-4-fluorobenzyl)oxy]-thiophene-2-carboxylic acid], the IC50 in experiment [1], in experiment [2], in experiment [3], in experiment [4], in experiment [5] and in experiment [6] was greater than 10 µM throughout. Besides, on PLK1 kinase domain, the IC50 is less than 0.1 µM.
As to `COc1cc2ncn(-c3cc(OS(=O)(=O)c4ccccc4[N+](=O)[O-])c(C(N)=O)s3)c2cc1OC` [Example 153, 2-(Aminocarbonyl)-5-(5,6-dimethoxy-1H-benzimidazol-1-yl)thien-3-yl 2-nitrobenzenesulfonate], the IC50 in experiment [1], in experiment [2], in experiment [3], in experiment [4], in experiment [5] and in experiment [6] was greater than 10 µM in each case. On PLK1 kinase domain, the IC50 is less than 0.1 µM.
Consider `NC(=O)c1sc(-n2cnc3ccccc32)cc1CCc1ccccc1` [Example 130, 5-(1H-Benzimidazol-1-yl)-3-(2-phenylethyl)thiophene-2-carboxamide], for which the IC50 in experiment [1] was greater than 10 µM; in experiment [2], greater than 10 µM; in experiment [3], 1 to 10 µM; in experiment [4] it was greater than 10 µM; in experiment [5], 1 to 10 µM; in experiment [6], 1 to 10 µM. The IC50 at PLK1 kinase domain is 0.1 to 10 µM.
Turning to `NC(=O)c1sc(-n2cnc3ccccc32)cc1OCc1ccccc1[N+](=O)[O-]` [Example 117, 5-(1H-Benzimidazol-1-yl)-3-[(2-nitrobenzyl)oxy]thiophene-2-carboxamide], the IC50 in experiment [1] was greater than 10 µM; in experiment [2] it was less than 1 µM; in experiment [3], less than 1 µM; in experiment [4], 1 to 10 µM; in experiment [5], less than 1 µM; in experiment [6], less than 1 µM. In addition, on PLK1 kinase domain, the IC50 was less than 0.1 µM.
On to `NC(=O)c1sc(-n2cnc3cc4c(cc32)OCCO4)cc1OCc1ccccc1C(F)(F)F` [Example 123, 5-(6,7-Dihydro-1H-[1,4]dioxino[2,3f]benzimidazol-1-yl)-3-{[2-(trifluoromethyl)benzyl]-oxy}thiophene-2-carboxamide], for which the IC50 is 1 to 10 µM in experiment [1]; 1 to 10 µM in experiment [2]; 1 to 10 µM in experiment [3]; greater than 10 µM in experiment [4]; 1 to 10 µM in experiment [5]; 1 to 10 µM in experiment [6]. In addition, the IC50 on PLK1 kinase domain is less than 0.1 µM.
As to `Cc1ccccc1COc1cc(-n2cnc3ccc(Cl)cc32)sc1C(N)=O` [Example 61], the IC50 in experiment [1] is greater than 10 µM; in experiment [2], 1 to 10 µM; in experiment [3], 1 to 10 µM; in experiment [4] it was greater than 10 µM; in experiment [5], 1 to 10 µM; in experiment [6], 1 to 10 µM. Moreover, on PLK1 kinase domain, the IC50 was less than 0.1 µM.
`COc1cc2ncn(-c3cc(OCc4c(Cl)cccc4Cl)c(C(N)=O)s3)c2cc1OC` [Example 64, 3-[(2,6-Dichlorobenzyl)oxy]-5-(5,6-dimethoxy-1H-benzimidazol-1-yl)thiophene-2-carboxamide]: the IC50 in experiment [1] was greater than 10 µM; in experiment [2], less than 1 µM; in experiment [3], 1 to 10 µM; in experiment [4], greater than 10 µM; in experiment [5], 1 to 10 µM; in experiment [6], 1 to 10 µM. Also, the IC50 at PLK1 kinase domain is less than 0.1 µM.
Turning to `NC(=O)c1ccc2c(c1)ncn2-c1cc(OCc2ccccc2C(F)(F)F)c(C(N)=O)s1` [Example 125, 1-[5-(Aminocarbonyl)-4-({[2-(trifluoromethyl)phenyl]methyl}oxy)-2-thienyl]-1H-benzimidazole-5-carboxamide], the IC50 was greater than 10 µM in experiment [1]; 1 to 10 µM in experiment [2]; 1 to 10 µM in experiment [3]; greater than 10 µM in experiment [4]; 1 to 10 µM in experiment [5]; 1 to 10 µM in experiment [6]. Further, at PLK1 kinase domain, the IC50 was less than 0.1 µM.
Regarding `COc1cc2ncn(-c3cc(OCc4ccccc4C(F)(F)F)c(C(N)=O)s3)c2cc1OCCN1CCN(C)CC1` [Example 136, 5-(5-(Methyloxy)-6-{[2-(4-methyl-1-piperazinyl)ethyl]oxy}-1H-benzimidazol-1-yl)-3-({[2-(trifluoromethyl)phenyl]methyl}oxy)-2-thiophenecarboxamide], the IC50 in experiment [1] is 1 to 10 µM; in experiment [2], less than 1 µM; in experiment [3], less than 1 µM; in experiment [4], 1 to 10 µM; in experiment [5] it was less than 1 µM; in experiment [6], less than 1 µM. Besides, on PLK1 kinase domain, the IC50 was less than 0.1 µM.
For `COc1cc2ncn(-c3cc(OCc4ccccc4[S+](C)[O-])c(C(N)=O)s3)c2cc1OC` (stereo not drawn) [Example 98, 5-(5,6-Dimethoxy-1H-benzimidazol-1-yl)-3-{[2-(methylsulfinyl)benzyl]oxy}thiophene-2-carboxamide], the IC50 in experiment [1] is greater than 10 µM; in experiment [2], 1 to 10 µM; in experiment [3] it was 1 to 10 µM; in experiment [4], 1 to 10 µM; in experiment [5], 1 to 10 µM; in experiment [6], 1 to 10 µM. At PLK1 kinase domain, the IC50 is 0.1 to 10 µM.
Take `NC(=O)c1sc(-n2c(N)nc3ccccc32)cc1OCc1ccccc1C(F)(F)F` [Example 148, 5-(2-Amino-1H-benzimidazol-1-yl)-3-{[2-(trifluoromethyl)benzyl]oxy}thiophene-2-carboxamide]: the IC50 in experiment [1] is greater than 10 µM; in experiment [2] it was 1 to 10 µM; in experiment [3], 1 to 10 µM; in experiment [4] it was greater than 10 µM; in experiment [5] it was 1 to 10 µM; in experiment [6], 1 to 10 µM. Also, the IC50 at PLK1 kinase domain was 0.1 to 10 µM.
Consider `Cc1ccccc1COc1cc(-n2cnc3cc(Cl)c(Cl)cc32)sc1C(=O)O` [Example 66, 5-(5,6-Dichloro-1H-benzimidazol-1-yl)-3-[(2-methylbenzyl)oxy]-thiophene-2-carboxylic acid], for which the IC50 in experiment [1], in experiment [2], in experiment [3], in experiment [4], in experiment [5] and in experiment [6] was greater than 10 µM throughout. Further, on PLK1 kinase domain, the IC50 was less than 0.1 µM.
In the case of `COC(=O)c1sc(-n2cnc3cc(OC)c(OC)cc32)cc1OS(=O)(=O)c1ccccc1[N+](=O)[O-]` [Example 149], the IC50 is greater than 10 µM in experiment [1]; 1 to 10 µM in experiment [2]; 1 to 10 µM in experiment [3]; greater than 10 µM in experiment [4]; greater than 10 µM in experiment [5]; greater than 10 µM in experiment [6]. In addition, the IC50 on PLK1 kinase domain was less than 0.1 µM.
`CC(=O)c1sc(-n2cnc3ccc(Cl)cc32)cc1OCc1ccccc1C` [Example 39, 1-{5-(6-Chloro-1H-benzimidazol-1-yl)-3-[(2-methylbenzyl)oxy]thien-2-yl}ethanone]: the IC50 in experiment [1], in experiment [2], in experiment [3], in experiment [4], in experiment [5] and in experiment [6] was greater than 10 µM in each case. In addition, the IC50 on PLK1 kinase domain was 0.1 to 10 µM.
